According to patent publication US8546380B2, “Aminodihydrothiazine derivatives” (Shionogi & Co., Ltd., priority 2005, dated 2013):
Where two headings read alike, the source gives them in different places.

What was measured:
[1] = molecular target: recombinant human BACE-1 protein (Homo sapiens (Human), UniProt P56817); test: Measurement of Inhibition of β-Secretase Activity; format: biochemical
Outline: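 Recombinant human BACE-1 incubated with compound and Eu-cryptate-labelled biotinylated peptide substrate 3 h at 30° C in 50 mM sodium acetate pH 5.0, 0.008% Triton X-100. Streptavidin-XL665 in KF-containing phosphate buffer pH 7.0 then added, 1 h at 30° C, for time-resolved FRET read-out.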

[2] = fluorescence-quenched peptide substrate 18 nM, BACE-1 7.4 nM, 3 h at 30° C., pH5.0, read-out: IC50 value
[3] = recombinant human BACE-1 protein, 3 h at 30° C., pH5.0, read-out: IC50 value

Chain of recombinant human BACE-1 protein (P56817 46-501): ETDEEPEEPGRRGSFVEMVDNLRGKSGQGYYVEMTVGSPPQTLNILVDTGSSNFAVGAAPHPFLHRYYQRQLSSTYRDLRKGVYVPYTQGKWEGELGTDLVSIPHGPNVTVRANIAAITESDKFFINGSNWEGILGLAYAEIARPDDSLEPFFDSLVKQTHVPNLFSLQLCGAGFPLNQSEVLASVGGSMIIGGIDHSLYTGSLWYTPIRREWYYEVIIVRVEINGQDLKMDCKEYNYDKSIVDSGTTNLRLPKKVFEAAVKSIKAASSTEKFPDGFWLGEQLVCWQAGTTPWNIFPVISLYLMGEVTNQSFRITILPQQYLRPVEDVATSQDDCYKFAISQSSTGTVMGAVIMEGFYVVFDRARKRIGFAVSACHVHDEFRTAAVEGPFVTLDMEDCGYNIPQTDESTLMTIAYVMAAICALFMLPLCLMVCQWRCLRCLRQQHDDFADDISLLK

Row | SMILES | melting point | IC50 [1, 2] [µM] | IC50 [1, 3] [µM] | IC50 [1] [µM]
1 | CC1(c2csc3ccccc23)CCSC(N)=N1 (stereo not shown) [Compound 42] | 187 to 188 °C | < 100 | – | –
2 | Cc1ccc(C2(C)CCSC(N)=N2)cc1 (stereo not shown) [Compound 85] | 147 to 148 °C | < 100 | – | –
3 | CC1(c2ccc3c(c2)CCCC3)CCSC(N)=N1 (stereo not shown) [Compound 6] | 147 to 148 °C | < 100 | – | –
4 | CC1(c2ccc(F)cc2)CCCSC(N)=N1.Cl (stereo not shown) [Compound 129] | 219 to 222 °C | < 100 | – | –
5 | CC1(c2cccc(/C=N/OCc3ccncc3)c2)CCSC(N)=N1 (stereo not shown) [Compound 456] | 147 to 149 °C | < 100 | – | –
6 | CC1(c2cccc(/C=C/c3ccc(Cl)cc3)c2)CCSC(N)=N1.Cl (stereo not shown) [Compound 161] | 247 to 251 °C | – | 7.7 | –
7 | CC1(c2cccc(NC(=O)c3ccc(C(N)=O)cn3)c2)CCSC(N)=N1.Cl (stereo not shown) [Compound 73] | 266 to 269 °C | – | 0.435 | –
8 | CC(=O)c1ccc(C(=O)Nc2cccc(C3(C)CCSC(N)=N3)c2)nc1 (stereo not shown) [Compound 139] | 287 to 290 °C | < 100 | – | –
9 | CC1(c2cccc(Br)c2)CCSC(N)=N1.Cl (stereo not shown) [Compound 339] | 217 to 218 °C | < 100 | – | –
10 | CCOC(=O)/C=C/c1cccc(C2(C)CCSC(N)=N2)c1 (stereo not shown) [Compound 417] | 137 to 139 °C | – | 5 | –
11 | Cc1cnc(C(=O)Nc2cccc(C3(C)CCSC(N)=N3)c2)cn1 (stereo not shown) [Compound 444] | 214 to 215 °C | – | – | < 100
12 | CC1(c2cccc(NCc3ccccn3)c2)CCSC(N)=N1 (stereo not shown) [Compound 333] | 154 to 158 °C | < 100 | – | –
13 | CC1(c2cccc(C(=O)Nc3ccc(Cl)cn3)c2)CCSC(N)=N1.Cl.Cl (stereo not shown) [Compound 220] | 191 to 193 °C | – | 1.5 | –
14 | CC1(c2cccc(NC(=O)c3ccc(C(F)(F)F)cc3)c2)CCSC(N)=N1 (stereo not shown) [Compound 26] | 182 to 184 °C | – | 1.98 | –
15 | CC1(c2ccc3c(c2)NC(=O)CO3)CCSC(N)=N1 (stereo not shown) [Compound 38] | 240 to 244 °C (dec.) | < 100 | – | –
16 | CC1(c2cccc(OCCCc3ccccc3)c2)CCSC(N)=N1 (stereo not shown) [Compound 1010] | 90 to 91 °C | – | 2.8 | –
17 | CC1(c2cccc(OCCOc3ccc(Cl)cc3)c2)CCSC(N)=N1.Cl (stereo not shown) [Compound 121] | 166 to 167 °C | < 100 | – | –
18 | CC1(c2cccc(OCCOc3ccccc3)c2)CCSC(N)=N1.Cl (stereo not shown) [Compound 57] | 197 to 198 °C | < 100 | – | –
19 | COc1ccc(C(=O)Nc2cccc(C3(C)CCSC(N)=N3)c2)nn1 (stereo not shown) [Compound 405] | 192 to 194 °C | < 100 | – | –
20 | CC1(c2ccc3c(c2)OCCO3)CCSC(N)=N1 (stereo not shown) [Compound 18] | 181 to 183 °C | < 100 | – | –
21 | CC1(c2cccc(NC(=O)c3ncc(Cl)cc3Cl)c2)CCSC(N)=N1.Cl (stereo not shown) [Compound 127] | 280 to 285 °C | – | 0.054 | –
22 | CC1(c2cc(NC(=O)c3ccc(C(F)(F)F)cn3)cc(C(F)(F)F)c2)CCSC(N)=N1 (stereo not shown) [Compound 897] | 212 to 214 °C | – | 0.816 | –
23 | CC1(c2ccc(C(=O)Nc3ccccc3)s2)CCSC(N)=N1 (stereo not shown) [Compound 483] | 224 to 227 °C | < 100 | – | –
24 | CC1(c2ccc3ccccc3c2)CCSC(N)=N1.Cl (stereo not shown) [Compound 3] | 285 °C (dec.) | < 100 | – | –
25 | CC1(c2cc(F)cc(NC(=O)c3ncc(Cl)cc3Cl)c2)CCSC(N)=N1 (stereo not shown) [Compound 342] | 184 to 187 °C | – | – | –
26 | CC1(c2ccccc2)CN=C(N)SC1.Cl (stereo not shown) | 235 to 240 °C | – | – | –
27 | CC1(c2ccc(OCc3ccc(-c4ccccc4)cc3)cc2)CCSC(N)=N1.Cl (stereo not shown) | 281 °C (dec.) | – | – | –
28 | COc1ccc(C2(C)CCCN=C(N)S2)cc1.Cl (stereo not shown) | 130 to 131 °C | – | – | –
29 | CC1(c2cccc(OCCCN3CCCC3=O)c2)CCSC(N)=N1 (stereo not shown) [Compound 149] | 143 to 145 °C | – | – | –
30 | CO/N=C(\C)c1cccc(C2(C)CCSC(N)=N2)c1.Cl (stereo not shown) | 192 to 194 °C | – | – | –

The next lines start with results.

Row | melting point | IC50 [1, 2] [µM] | IC50 [1, 3] [µM] | SMILES | IC50 [1] [µM]
31 | 149 to 150 °C | < 100 | – | CC1(c2cccc(CNC(=O)c3ccc(Cl)cc3)c2)CCSC(N)=N1.Cl (stereo not shown) [Compound 1184] | –
32 | 182 to 183 °C | < 100 | – | CC1(c2cccc(/C=N/OCc3ccccn3)c2)CCSC(N)=N1 (stereo not shown) [Compound 1193] | –
33 | 206 to 210 °C | – | 0.165 | CC1(c2cc(Br)cc(NC(=O)c3cc4ccccc4s3)c2)CCSC(N)=N1.Cl (stereo not shown) [Compound 1014] | –
34 | 164 to 167 °C | < 100 | – | COC(=O)c1cc(C(=O)Nc2cccc(C3(C)CCSC(N)=N3)c2)nn1C (stereo not shown) [Compound 687] | –
35 | 146 to 149 °C | < 100 | – | CC1(c2ccc3c(c2)CCO3)CCSC(N)=N1 (stereo not shown) [Compound 1084] | –
36 | 139 to 140 °C | < 100 | – | CC1(c2ccccc2)CC(c2ccccc2)SC(N)=N1 (stereo not shown) [Compound 835] | –
37 | 110 to 111 °C | < 100 | – | Cc1ccccc1C1(C)CCSC(N)=N1 (stereo not shown) [Compound 756] | –
38 | 122 to 125 °C | – | 0.93 | CC1(c2cccc(NC(=O)c3ccc(C#N)cc3)c2)CCSC(N)=N1 (stereo not shown) [Compound 498] | –
39 | 191 to 193 °C | < 100 | – | CC(C)c1ccc(C(=O)Nc2cccc(C3(C)CCSC(N)=N3)c2)nc1 (stereo not shown) [Compound 1005] | –
40 | 195 to 198 °C | < 100 | – | CC1(c2ccc(F)c(C(=O)Nc3ccc(Cl)cn3)c2)CCSC(N)=N1 (stereo not shown) [Compound 1125] | –
41 | 182 to 186 °C (dec.) | < 100 | – | CC1(c2cccc(/C(Cl)=C/C(=O)Nc3ccc(Cl)cn3)c2)CCSC(N)=N1 (stereo not shown) [Compound 1142] | –
42 | 178 to 180 °C | < 100 | – | COc1ccc(CNc2cccc(C3(C)CCSC(N)=N3)c2)cc1.Cl.Cl (stereo not shown) [Compound 600] | –
43 | 179 to 180 °C | < 100 | – | CC1(c2cccc(/C=C\CCc3ccc(Cl)cc3)c2)CCSC(N)=N1.Cl (stereo not shown) [Compound 1261] | –
44 | 121 to 124 °C | < 100 | – | COc1ccc(NC(=O)/C=C(\Cl)c2cccc(C3(C)CCSC(N)=N3)c2)cc1 (stereo not shown) [Compound 1114] | –
45 | 199 to 203 °C | < 100 | – | CC1(c2cccc(CCC(=O)Nc3ccc(Cl)cn3)c2)CCSC(N)=N1.Cl.Cl (stereo not shown) [Compound 657] | –
46 | 269 °C (dec.) | – | 0.061 | CC1(c2cccc(NC(=O)c3ccc(Cl)cn3)c2)CCSC(N)=N1.Cl (stereo not shown) [Compound 793] | –
47 | 247 to 251 °C (dec.) | – | 0.174 | COc1cc(NC(=O)c2ccc(Cl)cn2)cc(C2(C)CCSC(N)=N2)c1.Cl (stereo not shown) [Compound 1035] | –
48 | 278 to 281 °C | – | 0.14 | CC1(c2cc(Br)cc(NC(=O)c3ccc(Br)cc3)c2)CCSC(N)=N1.Cl (stereo not shown) [Compound 1262] | –
49 | 194 to 195 °C | < 100 | – | CC1(c2cccc(CNC(=O)c3ccc(F)cc3)c2)CCSC(N)=N1.Cl (stereo not shown) [Compound 1241] | –
50 | 166 to 168 °C | < 100 | – | CC1(c2ccc(Oc3ccc(Br)cc3)cc2)CCSC(N)=N1 (stereo not shown) [Compound 735] | –

Row | melting point | IC50 [1, 2] [µM] | IC50 [1, 3] [µM] | SMILES | IC50 [1] [µM]
51 | 185 to 187 °C | – | 0.264 | CC1(c2cc(NC(=O)c3ccc(Cl)cn3)cc(C(F)(F)F)c2)CCSC(N)=N1 (stereo not shown) [Compound 964] | –
52 | 212 to 213 °C | < 100 | – | COc1ccc2cc(C3(C)CCSC(N)=N3)ccc2c1 (stereo not shown) [Compound 871] | –
53 | 179 to 182 °C | < 100 | – | CC1(c2cccc(NCc3ccncc3)c2)CCSC(N)=N1 (stereo not shown) [Compound 728] | –
54 | 155 to 156 °C | < 100 | – | CC1(c2cccc(CO)c2)CCSC(N)=N1 (stereo not shown) [Compound 501] | –
55 | 135 to 136 °C | < 100 | – | CO/N=C/c1cccc(C2(C)CCSC(N)=N2)c1 (stereo not shown) [Compound 804] | –
56 | 155 to 157 °C | < 100 | – | CC1(c2cccc(NC(=O)c3ncc(C(F)(F)F)cc3F)c2)CCSC(N)=N1 (stereo not shown) [Compound 643] | –
57 | 255 to 260 °C (dec.) | – | 2.3 | CC(C)Oc1cc(NC(=O)c2ccc(Cl)cn2)cc(C2(C)CCSC(N)=N2)c1.Cl (stereo not shown) [Compound 1135] | –
58 | 192 to 194 °C | – | – | CCOc1cnc(C(=O)Nc2cccc(C3(C)CCSC(N)=N3)c2)cn1 (stereo not shown) [Compound 863] | –
59 | 193 to 196 °C | – | – | CC1(c2cccc(NC(=O)c3ccc(C#N)cn3)c2)CCSC(N)=N1 (stereo not shown) [Compound 651] | –
60 | 159 to 160 °C | – | – | COc1ccccc1C1(C)CCSC(N)=N1 (stereo not shown) [Compound 680] | –
61 | 88 to 90 °C | – | – | COc1ccc(C2(c3ccc(OC)cc3)CCSC(N)=N2)cc1 [Compound 1006] | –
62 | 148 to 150 °C | – | – | CC1(c2cccc(NC(=O)c3ncc(Cl)cc3N)c2)CCSC(N)=N1 (stereo not shown) [Compound 743] | –
63 | 132 to 134 °C | – | – | CC1(c2ccc(F)c(C(=O)Nc3cc(Cl)ccn3)c2)CCSC(N)=N1 (stereo not shown) [Compound 1068] | –
64 | 99 to 100 °C | – | – | CCC1(c2ccc(OC)cc2)CCSC(N)=N1 (stereo not shown) [Compound 709] | –
65 | 140 to 141 °C | – | – | CC1(c2cccc(Oc3ccccc3)c2)CCSC(N)=N1 (stereo not shown) [Compound 1139] | –
66 | 157 to 162 °C | – | – | CC1(c2cccc(NC(=O)c3ncc(Cl)cc3O)c2)CCSC(N)=N1 (stereo not shown) [Compound 717] | –
67 | 47 to 48 °C | – | – | CC(C)(C)NC1=NC(C)(c2ccccc2)CCCS1 (stereo not shown) [Compound 810] | –
68 | 125 to 126 °C | – | – | COc1ccc(C2(C)CCCSC(N)=N2)cc1 (stereo not shown) [Compound 1008] | –
69 | 132.1 to 134.4 °C | – | – | CNC(=O)CNC1=NC(C)(c2ccc3ccccc3c2)CCS1 (stereo not shown) [Compound 930] | –
70 | 290 to 295 °C | – | – | CC1(c2ccc(F)c(-n3nc4c5cc(Cl)ccc5[nH]cc-4c3=O)c2)CCSC(N)=N1 (stereo not shown) [Compound 1166] | –
